Literature values, collected in patent US20230346889A9, “TREATMENT OF ACUTE HEART FAILURE” (AnaCardio R&D AB, priority 2019, published 2023).
Non-standard residues stand in square brackets, D forms with d. Residues, ends and D or L forms follow the SMILES beside them. dTrp(2-Me) = Cc1[nH]c2ccccc2c1C[C@@H](N)C(=O)O; d2Nal = N[C@H](Cc1ccc2ccccc2c1)C(=O)O

What was measured:
[1] = test system: patients with heart failure; settings: cited from earlier work; for association with mortality: observational ADHERE Registry
[2] = test system: dogs with acute myocardial infarction; settings: US2004014671A1; cited from earlier work

Row | SMILES | improvement of CO [2] | association with mortality [1] | further results
1 | C[C@@H]1CC(=O)NN=C1c1ccc(NN=C(C#N)C#N)cc1 [Levosimendan] | – | – | hypotension and arrhythmias vs. placebo ([1]; REVIVE I and II): increased hypotension and arrhythmias vs. placebo; effect on CO and blood pressure ([1]; human, in vivo): increases CO but also causes hypotension
2 | C[C@H](NC(=O)[C@@H](Cc1ccc2ccccc2c1)NC(=O)[C@@H](C)N)C(=O)N[C@@H](Cc1c[nH]c2ccccc12)C(=O)N[C@H](Cc1ccccc1)C(=O)N[C@@H](CCCCN)C(N)=O [Pralmorelin] (H-[dA][d2Nal]AW[dF]K-NH2) | improved | – | –
3 | CC(CCc1ccc(O)cc1)NCCc1ccc(O)c(O)c1 (stereo not shown) [dobutamine] | – | independently associated with increased mortality | –
4 | Cc1[nH]c2ccccc2c1C[C@@H](NC(=O)[C@@H](N)Cc1cnc[nH]1)C(=O)N[C@@H](C)C(=O)N[C@@H](Cc1c[nH]c2ccccc12)C(=O)N[C@H](Cc1ccccc1)C(=O)N[C@@H](CCCCN)C(N)=O [hexarelin] (H-H[dTrp(2-Me)]AW[dF]K-NH2) | not | – | –
5 | Cc1[nH]c(=O)c(C#N)cc1-c1ccncc1 [milrinone] | – | independently associated with increased mortality | adverse outcomes vs. placebo ([1]; randomized OPTIME CHF): caused significantly more hypotension and atrial arrhythmias and non-significantly more deaths
